Data from PubChem BioAssay (NCI).
Where “and” joins values, the source holds several entries; their conditions need not be identical. Equal values may be shown once.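 Five compound concentrations were applied to cells in 96-well plates for 48 hours; endpoints were derived by simple linear interpolation of the resulting dose-response curve. Here, GI50 denotes the concentration required for 50% inhibition of growth. TGI: total growth inhibition.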

Legend:
Assay in all cases: inhibition of tumour cell growth, NCI panel, 48 h
[1] = tested on: NCI/ADR-RES ovarian
[2] = tested on: NCI-H226 lung
[3] = tested on: CAKI-1 renal
[4] = tested on: EKVX NSCLC
[5] = tested on: OVCAR-3 ovarian
[6] = tested on: MALME-3M melanoma
[7] = tested on: HCT-116 colon
[8] = tested on: RPMI-8226 leukemia
[9] = tested on: HOP-92 NSCLC
[10] = tested on: PC-3 prostate

Row | SMILES | TGI [1] | TGI [2] | TGI [3] | TGI [4] | TGI [5] | TGI [6] | TGI [7] | TGI [8] | TGI [9] | TGI [10] | GI50 [1] | GI50 [2] | GI50 [3] | GI50 [4] | GI50 [5] | GI50 [6] | GI50 [7] | GI50 [8] | GI50 [9] | GI50 [10]
1 | COc1c(CC=C(C)C)c(O)c(C(CC(C)C)c2c(O)c(CC=C(C)C)c(O)c(C(C)=O)c2O)c(O)c1C(C)=O (stereo unspecified) | 10.2 µM | 10.6 µM | 11.7 µM | 11.4 µM | 12.5 µM | 6.45 µM | 1.6 µM | 4.17 µM | 0.562 µM | 10.3 µM |  |  |  |  |  |  |  |  |  | 
2 | COCCOCCOCCOCCOC(=O)OC[n+]1ccc(NC(=NCCCCCCOc2ccc(Cl)cc2)NC#N)cc1 | 20.2 µM | 30.4 µM | 20.5 µM | 14.9 µM | 19.3 µM | 29.5 µM | 11.8 µM | 3.13 µM | 16.3 µM | 14.2 µM | < 0.0395 µM | 12.7 µM | 3.3 µM | 3.93 µM | 4.69 µM | 12.1 µM | < 0.01 µM | < 0.01 µM | 1.7 µM | < 0.01 µM
3 | Cc1ccc(S(=O)(=O)NC(=O)OC23COCN2COC3)cc1 | > 100 µM | > 100 µM | > 100 µM | > 100 µM | > 100 µM | > 100 µM | > 100 µM | 73 µM | > 100 µM | > 100 µM |  |  |  |  |  |  |  |  |  | 
4 | CN(C)c1nc(N)c(C#N)c(C#N)c1C#N | > 10 µM | > 10 µM | > 10 µM | > 10 µM | > 10 µM | > 10 µM | > 10 µM | > 10 µM | > 10 µM | > 10 µM |  |  |  |  |  |  |  |  |  | 
5 | C=CCN(CC=C)C(=O)[C@H](CC)[C@@H]1CC[C@@H](C)[C@@H]([C@H](C)[C@@H](O)[C@@H](C)C(=O)[C@H](CC)C2O[C@]3(C=C[C@@H](O)[C@]4(CC[C@@](C)([C@H]5CC[C@](O)(CC)[C@H](C)O5)O4)O3)[C@H](C)C[C@@H]2C)O1 (stereo partly specified) | 9.82 µM | 4.92 µM | 7.63 µM | 9.07 µM | 4.57 µM | 3.6 µM | 10.1 µM | 5.43 µM | 4.31 µM | 12.4 µM | 2.7 µM | 1.86 µM | 1.75 µM | 2.33 µM | 1.92 µM | 1.76 µM | 2.81 µM | 1.62 µM | 1.39 µM | 2.31 µM
6 | CC1(C)[C@H](O)[C@H](F)C[C@@]2(C)Oc3ccc(C(=O)Nc4ccc5c(c4)NC(=O)C54CCN(CCCCC#N)CC4)cc3C[C@H]12 | > 100 µM | 17.4 µM | 38.5 µM | 22.1 µM | 30.4 µM | 3.1 µM and 3.43 µM | 10.7 µM |  | 3.28 µM and 8.09 µM | 2.84 µM and 5.24 µM | 42.9 µM | 2.91 µM |  | 4.01 µM and 4.25 µM | 3.82 µM and 12 µM | 0.332 µM and 1.04 µM | 0.149 µM and 1.33 µM | 0.00262 µM | 0.00986 µM | 0.0225 µM
7 | COc1ccc(S(=O)(=O)N2CCNCC2)cc1OC | > 100 µM | > 100 µM | > 100 µM | > 100 µM | > 100 µM | > 100 µM | > 100 µM | > 100 µM | > 100 µM | > 100 µM | > 100 µM | > 100 µM | > 100 µM | > 100 µM | > 100 µM | > 100 µM | > 100 µM | > 100 µM | > 100 µM | > 100 µM
8 | CC1=NNC(=S)NCCCN2CCN(CCCNC(=S)NN=C(C)C=NNC(=S)NCCCN3CCN(CCCNC(=S)NN=C1)CC3)CC2 | > 100 µM | > 100 µM | > 100 µM | > 100 µM | > 100 µM | > 100 µM | > 100 µM | > 100 µM | > 100 µM | > 100 µM |  |  |  |  |  |  |  |  |  | 
9 | COc1c(OC(C)C)cc2cc(O)c(C(=O)NC3Cc4ccc(c(Cl)n4)O[C@@H]4C=C5C#C/C(=C\C#CC6OC56C4OC4CC(C)(O)C(O)C(C)O4)C(OC4CC(O)C(N(C)C)C(C)O4)COC3=O)cc2c1OC (stereo partly specified) | > 36.3 µM | > 36.3 µM and 37.5 µg/mL | > 36.3 µM and 37.5 µg/mL | > 36.3 µM and 37.5 µg/mL | > 36.3 µM and 37.5 µg/mL | > 36.3 µM and 37.5 µg/mL | 15.7 µg/mL | 3.67 µg/mL | > 36.3 µM and 2.94 µg/mL | > 36.3 µM |  | 2.8 µg/mL | 0.897 µg/mL | > 36.3 µM and 37.5 µg/mL | > 36.3 µM and 21.3 µg/mL | 0.533 µg/mL | 0.584 µg/mL | 0.348 µg/mL | 0.482 µg/mL | 
10 | O=S(=O)(O)c1ccc2cc3nn(-c4ccc(/C=C/c5ccc(-n6nc7cc8ccc(S(=O)(=O)O)cc8cc7n6)cc5S(=O)(=O)O)c(S(=O)(=O)O)c4)nc3cc2c1 | > 100 µM | > 100 µM | > 100 µM | > 100 µM | > 100 µM | > 100 µM | > 100 µM | > 100 µM | > 100 µM | > 100 µM | > 100 µM | > 100 µM | > 100 µM | 95.2 µM | > 100 µM | > 100 µM | 23.6 µM | > 100 µM | 88.7 µM | 74.7 µM
11 | NC(=O)CC(N)c1nn[nH]n1 (stereo unspecified) | > 100 µM | > 100 µM | > 100 µM | > 100 µM | > 100 µM | > 100 µM | > 100 µM | > 100 µM | > 100 µM | > 100 µM |  |  |  |  |  |  |  |  |  | 
